Several values for one entry are separate records, joined by “and”; a condition that tells them apart may be missing. Equal entries are not always repeated. Where two headings read alike, the source gives them in different places.
What was measured:
Aβ40 [1] = assay: Rat PK/PD study: Aβ40 in forebrain and CSF after oral dosing; assay type: in vivo; conditions: for ED50: po, at 4 h, read-out: ED50 for inhibition of forebrain Aβ40
Protocol: Maximum activity was between 4 and 8 h, and Aβ40 concentrations returned to baseline after 24 h. Significant (>50 %) Aβ40 lowering was observed even at the lowest dose of 3 μmol/kg, and the effect saturated at higher doses.
(§1) Frozen rodent forebrains were homogenized in 9 volumes of ice-cold Tris-buffered saline (pH 7.4) containing Complete protease inhibitor cocktail (Roche Diagnostics, Penzberg, Germany) using a Sonifier 450 (Branson) and stored in aliquots at -80 °C. Triton X-100 soluble Aβ was extracted by mixing 50 μl 2 % Triton X-100 with 50 μl homogenate, incubating for 15 min on ice with vortexing, followed by ultracentrifugation at 100000xg for 15 min. The clear supernatant was diluted to a final forebrain dilution of 1:100 and used for analysis. For the extraction of insoluble amyloid peptides, 50 μl forebrain homogenate was mixed with 117 μl of 100 % formic acid and stored on ice for 15 min with vortexing. Samples were neutralized with 950 μl 1 M Tris base, containing Complete protease inhibitor cocktail (Roche, Basle, Switzerland) and stored overnight at room temperature. The supernatant after 15 min centrifugation at 14000 rpm was used for analysis.
Aβ38, 40 and 42 were determined using the electro-chemiluminescence immuno assay kits from Meso Scale Discovery (Rockville, MD, USA) in either singlet or triplex format. Samples and standards were prepared according to the manufactures protocols. The kit based on the antibody 4G8 was used for rat forebrain and CSF samples, and kits based on 6E10 were used for dog CSF or plasma and APP51/16 brain and CSF samples. Soluble APPα and sAPPβ from APP51/16 mice were determined from the 100000xg supernatant and analyzed with Meso Scale Discovery commercial kits. C-terminal fragments C83 and C99 were determined from Western blots. Forebrain homogenates dephosphorylated with lambda protein phosphatase as described and run on a 10 % Tris-bicine gel with 8 M urea. After transfer to Immobilon P membranes (Bio-Rad Bedford MA USA), bands were probed with APP C8 antibody (recognizing the C-terminus of APP) and detected with goat anti-mouse IgG Fab fragment AlexaFluor680 (Invitrogen). The same gel was used to visualize Aβ1-38, 1-40, and 1-42 using the N-terminal antibody beta1 and goat anti rabbit IgG IRdye 800CW (Odyssey). Full-length human APP was detected using an in house immunoassay based on the MSD ECL system as described.

[2] = Chronic treatment of mice: observations (mortality, hair colour, retina); assay type: in vivo; conditions: APP51/16 mice, 100 μmol/kg p.o. once daily
[3] = Pharmacokinetics after i.v. and oral application, beagle dog
Protocol: Pharmacokinetic studies used male Sprague Dawley rats, C57BL6 mice and Beagle dogs, obtained from Charles River (France, rodents) and Marshall (Italy, dogs). […] Blood was collected i.v., by sublingual bleeding or at sacrifice whereas a serial blood sampling allowed obtaining individual PK profiles in these species. Blood samples were taken between 5 min (intravenous) and 15 min (oral) up to 24 h (mice), 48 h (rat) and 408 h (dog).
The absorption and disposition parameters were estimated by a non-compartmental analysis of the mean blood concentration (n = 3 mice) or individual concentration (rats, dogs) versus time profile after oral and intravenous administration.

[4] = Octanol/water distribution coefficient; assay type: physicochemical; conditions: derived from apparent permeability across an artificial liquid membrane
Protocol: The octanol/water distribution coefficient was derived from the apparent permeability across an artificial liquid membrane. The PAMPA assay was done as described. MDCK cells overexpressing human p-glycoprotein (MDR1-MDCK cells, obtained from Prof. A. Berns, Netherlands Cancer Institute) were grown on HTS Multiwell plates, 1 μm pore size (Becton Dickinson). After formation of a tight monolayer, NB-360 was applied to either the upper or the lower chamber. After one hour, liquid was removed from the upper and lower chambers and analyzed by HPLC-MS. Apical-to-basolateral and basolateral-to-apical transport rates were calculated.

[5] = Blood pharmacokinetics and brain penetration in the rat, 30 μmol/kg oral; assay type: in vivo; conditions: for Cmax / AUC(0-t): male, Sprague Dawley, 30 umol/kg
Text: In vivo blood pharmacokinetics and brain penetration was investigated in the rat.

[6] = Chronic 6-week treatment of APP51/16 mice: NB-360 blood exposure; conditions: female, APP51/16 (C57BL/6 background), mouse, po, 100 μmol/kg
Protocol: Brain samples were homogenized with 2 mM KH2PO4 buffer (approx. 1/2, w/v). […] The LLOQ ranged between 0.4 and 2 ng/mL in blood and 1.2 ng/g and 6 ng/g in brain.
Rat studies used male Charles River Sprague-Dawley rats of approx. 300 g body weight. Female transgenic APP51/16 mice (C57BL/6 background strain) were bred in-house. APP51/16 mice express human wild-type APP751 under the control of a Thy-1 expression cassette in brain neurons, and are characterized by mostly cortical, but few vascular amyloid-β deposits. […] Dosing was per os in a dose volume of 10 ml/kg for mice and 5 ml/kg for rats. […] Rodents were deeply anesthetized for CSF sampling from the cisterna magna, accessed through the exposed atlanto-occipital membrane. CSF was harvested into protein lo-bind Eppendorf tubes and frozen on dry ice. Animals were decapitated while anesthetized and blood and brain samples collected. Brains were briefly rinsed in PBS, quickly wet-dissected and samples frozen on a metal plate precooled on dry ice. All samples were stored at -80 ° C until analysis. The dog study was carried out at Charles River Laboratories, Canada. Male dogs were used with n = 4 per group. A cannula with an access port was implanted under anesthesia, to allow serial CSF sampling from the lateral ventricle. Dogs were allowed to recover from the surgery for 2 weeks before the start of the experiment.

Aβ40 [7] = assay: Pre-plaque APP51/16 mice: brain Aβ40 after single or 4-day oral dosing; assay type: in vivo, mouse
Protocol: This strain of transgenic mice was selected since it resembles the situation in sporadic human AD, where no APP mutation is present. […] Next, we dosed the compound p.o. once daily for 4 days at 2 doses to pre-plaque APP51/16 mice (age: 8 months) in order to achieve steady state exposure, and measured the Aβ40 reduction 24 h after the last dose. […] In order to achieve a >50 % reduction of brain Aβ over a 24 h period in mice we selected this dose for a chronic study.
as §1
Aβ38, 40 and 42 were determined using the electro-chemiluminescence immuno assay kits from Meso Scale Discovery (Rockville, MD, USA) in either singlet or triplex format. Samples and standards were prepared according to the manufactures protocols. […] Soluble APPα and sAPPβ from APP51/16 mice were determined from the 100000xg supernatant and analyzed with Meso Scale Discovery commercial kits. C-terminal fragments C83 and C99 were determined from Western blots. […] After transfer to Immobilon P membranes (Bio-Rad Bedford MA USA), bands were probed with APP C8 antibody (recognizing the C-terminus of APP) and detected with goat anti-mouse IgG Fab fragment AlexaFluor680 (Invitrogen). […]

Cc1cc(C#N)cnc1C(=O)Nc1ccc(F)c([C@]2(C)CO[C@@](C)(C(F)(F)F)C(N)=N2)c1 [NB-360]
Aβ40 inhibition (Aβ40 [1]; 30 μmol/kg p.o., 4 h): 90.9% and ~ 90%
Max effect (dose-response in brain) (Aβ40 [1]; based on 4 h data, Fig. 2d): 91%
Aβ40 lowering (Aβ40 [1]; lowest dose 3 μmol/kg p.o.): > 50%
ED50 (Aβ40 [1]; converted dose): 0.7 mg/kg
ED50 (Aβ40 [1]): 1.6 ± 0.25 µmol/kg
first appearance of grey hair patches [2]: 2-3 weeks
mortality during treatment ([2]; 6 weeks): Two out of 17 mice in the treatment group died
Vol. of Distribution ([3]; 2 μmol/kg i.v.): 0.9 L/kg
clearance ([3]; Beagle, blood, iv, 2 umol/kg): 0.4 mL/min/kg
half-life ([3]; Beagle, blood, iv, 2 umol/kg): 36.2 h
bioavailability ([3]; Beagle, blood, po, 2 umol/kg): 62%
logP [4]: 3.7
unbound AUC 0-24 h blood ([5]; blood, corrected for nonspecific binding): 0.63 µM·h
unbound AUC 0-24 h brain ([5]; brain, corrected for nonspecific binding): 0.54 µM·h
Cmax ([5]; blood): 1620 nM
AUC(0-t) ([5]; blood, read-out: AUC 0-24 h blood): 10.2 µM·h
Cmax ([5]; brain): 4010 nM
AUC(0-t) ([5]; brain, read-out: AUC 0-24 h brain): 23.6 µM·h
concentration at 4 h [6]: 3200 nM
concentration at 24 h [6]: 130 nM
lowering of TX-100 soluble brain Aβ40 (Aβ40 [7]; pre-plaque APP51/16 mice (3-5 months), 30 μmol/kg single oral dose, 4 h): 79.6%
reduction of forebrain Aβ (Aβ40 [7]; pre-plaque APP51/16 mice (8 months), 30 μmol/kg/d p.o. 4 days, 24 h after last dose): 15.1%
Aβ40 reduction in forebrain (Aβ40 [7]; pre-plaque APP51/16 mice (8 months), 100 μmol/kg/d p.o. 4 days, 24 h after last dose): 52.1%
